Source: ChEMBL document CHEMBL1201862, “PubChem BioAssay data set” (2004)
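Grown in 96-well plates, cells were treated for 48 hours with each compound at five concentrations. Insufficient inhibition: endpoint recorded as highest concentration tested. GI50: concentration for 50% inhibition of growth.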 Calls of active or inactive are those of the source. Rule as the data show it: active = GI50 up to about 1.1 µM and inactive = higher.

Columns and labels:
Experiment in all cases: inhibition of tumour cell growth, NCI panel, 48 h
786-0 = system: 786-0
A498 = system: A498
A549 = system: A549
ACHN = system: ACHN
CAKI-1 = system: CAKI-1
CCRF-CEM = system: CCRF-CEM
COLO 205 = system: COLO 205
DLD-1 = system: DLD-1
DMS-114 = system: DMS-114
DMS-273 = system: DMS-273
EKVX = system: EKVX
HCC 2998 = system: HCC 2998
HCT-116 = system: HCT-116
HCT-15 = system: HCT-15
HL-60 = system: HL-60
HOP-18 = system: HOP-18
HOP-62 = system: HOP-62
HOP-92 = system: HOP-92
HT-29 = system: HT-29
IGROV-1 = system: IGROV-1
K562 = system: K562
KM-20L2 = system: KM-20L2
KM12 = system: KM12
LOX IMVI = system: LOX IMVI
LXFL 529 = system: LXFL 529
M14 = system: M14
MOLT-4 = system: MOLT-4
Malme-3M = system: Malme-3M
NCI-H23 = system: NCI-H23
NCI-H460 = system: NCI-H460
OVCAR-3 = system: OVCAR-3
OVCAR-4 = system: OVCAR-4
OVCAR-5 = system: OVCAR-5
OVCAR-8 = system: OVCAR-8
RPMI-8226 = system: RPMI-8226
RXF 393 = system: RXF 393
RXF 631 = system: RXF 631
SF-268 = system: SF-268
SF-295 = system: SF-295
SF-539 = system: SF-539
SK-MEL-2 = system: SK-MEL-2
SK-MEL-5 = system: SK-MEL-5
SK-OV-3 = system: SK-OV-3
SN12C = system: SN12C
SNB-19 = system: SNB-19
SNB-75 = system: SNB-75
SNB-78 = system: SNB-78
SW-620 = system: SW-620
TK-10 = system: TK-10
U-251 = system: U-251
UACC-257 = system: UACC-257
UACC-62 = system: UACC-62
UO-31 = system: UO-31
XF498 = system: XF498
M19-MEL = system: M19-MEL
NCI-H226 = system: NCI-H226
NCI-H522 = system: NCI-H522
SK-MEL-28 = system: SK-MEL-28
SR = system: SR

SMILES: CCCCCCCCCCCCCC(=O)OCC1OC(=O)CC1O (stereo not drawn)
- GI50 (786-0): > 100 µM (inactive)
- GI50 (A498): > 100 µM (inactive)
- GI50 (A549): > 100 µM (inactive)
- GI50 (ACHN): > 100 µM (inactive)
- GI50 (CAKI-1): 43 µM (inactive)
- GI50 (CCRF-CEM): 42 µM (inactive)
- GI50 (COLO 205): > 100 µM (inactive)
- GI50 (DLD-1): 34.8 µM (inactive)
- GI50 (DMS-114): 49.4 µM (inactive)
- GI50 (DMS-273): > 100 µM (inactive)
- GI50 (EKVX): > 100 µM (inactive)
- GI50 (HCC 2998): > 100 µM (inactive)
- GI50 (HCT-116): 44.2 µM (inactive)
- GI50 (HCT-15): 25.4 µM
- GI50 (HL-60): 43 µM (inactive)
- GI50 (HOP-18): 0.437 µM (active)
- GI50 (HOP-62): > 100 µM (inactive)
- GI50 (HOP-92): 7.36 µM (inactive)
- GI50 (HT-29): 94.4 µM (inactive)
- GI50 (IGROV-1): 88.5 µM (inactive)
- GI50 (K562): 24.9 µM (inactive)
- GI50 (KM-20L2): > 100 µM (inactive)
- GI50 (KM12): 81.5 µM (inactive)
- GI50 (LOX IMVI): 51.5 µM (inactive)
- GI50 (LXFL 529): > 100 µM (inactive)
- GI50 (M14): 21.9 µM (inactive)
- GI50 (MOLT-4): 35.2 µM (inactive)
- GI50 (Malme-3M): > 100 µM (inactive)
- GI50 (NCI-H23): > 100 µM (inactive)
- GI50 (NCI-H460): > 100 µM (inactive)
- GI50 (OVCAR-3): > 100 µM (inactive)
- GI50 (OVCAR-4): > 100 µM (inactive)
- GI50 (OVCAR-5): > 100 µM (inactive)
- GI50 (OVCAR-8): > 100 µM (inactive)
- GI50 (RPMI-8226): 49.8 µM (inactive)
- GI50 (RXF 393): > 100 µM (inactive)
- GI50 (RXF 631): > 100 µM (inactive)
- GI50 (SF-268): > 100 µM (inactive)
- GI50 (SF-295): 35.2 µM (inactive)
- GI50 (SF-539): > 100 µM (inactive)
- GI50 (SK-MEL-2): > 100 µM (inactive)
- GI50 (SK-MEL-5): > 100 µM (inactive)
- GI50 (SK-OV-3): > 100 µM (inactive)
- GI50 (SN12C): > 100 µM (inactive)
- GI50 (SNB-19): > 100 µM (inactive)
- GI50 (SNB-75): > 100 µM (inactive)
- GI50 (SNB-78): 56.1 µM (inactive)
- GI50 (SW-620): > 100 µM (inactive)
- GI50 (TK-10): > 100 µM (inactive)
- GI50 (U-251): > 100 µM (inactive)
- GI50 (UACC-257): > 100 µM (inactive)
- GI50 (UACC-62): 94 µM (inactive)
- GI50 (UO-31): 20.2 µM (inactive)
- GI50 (XF498): > 100 µM (inactive)

SMILES: C=CCNC1=C(C(=O)OCC)C(=O)CO1
- GI50 (786-0): > 100 µM (inactive)
- GI50 (A498): > 100 µM (inactive)
- GI50 (A549): > 100 µM (inactive)
- GI50 (ACHN): > 100 µM (inactive)
- GI50 (CAKI-1): > 100 µM (inactive)
- GI50 (CCRF-CEM): > 100 µM (inactive)
- GI50 (DLD-1): > 100 µM (inactive)
- GI50 (DMS-114): > 100 µM (inactive)
- GI50 (DMS-273): > 100 µM (inactive)
- GI50 (EKVX): > 100 µM (inactive)
- GI50 (HCC 2998): > 100 µM (inactive)
- GI50 (HCT-116): > 100 µM (inactive)
- GI50 (HCT-15): > 100 µM
- GI50 (HL-60): > 100 µM (inactive)
- GI50 (HOP-92): > 100 µM (inactive)
- GI50 (HT-29): > 100 µM (inactive)
- GI50 (IGROV-1): > 100 µM (inactive)
- GI50 (K562): > 100 µM (inactive)
- GI50 (KM-20L2): > 100 µM (inactive)
- GI50 (LOX IMVI): > 100 µM (inactive)
- GI50 (LXFL 529): > 100 µM (inactive)
- GI50 (M14): > 100 µM (inactive)
- GI50 (M19-MEL): > 100 µM (inactive)
- GI50 (MOLT-4): > 100 µM (inactive)
- GI50 (Malme-3M): > 100 µM (inactive)
- GI50 (NCI-H226): > 100 µM (inactive)
- GI50 (NCI-H23): > 100 µM (inactive)
- GI50 (NCI-H460): > 100 µM (inactive)
- GI50 (NCI-H522): > 100 µM (inactive)
- GI50 (OVCAR-3): > 100 µM (inactive)
- GI50 (OVCAR-4): > 100 µM (inactive)
- GI50 (OVCAR-5): > 100 µM (inactive)
- GI50 (OVCAR-8): > 100 µM (inactive)
- GI50 (RPMI-8226): > 100 µM (inactive)
- GI50 (RXF 393): > 100 µM (inactive)
- GI50 (RXF 631): > 100 µM (inactive)
- GI50 (SF-268): > 100 µM (inactive)
- GI50 (SF-295): > 100 µM (inactive)
- GI50 (SF-539): > 100 µM (inactive)
- GI50 (SK-MEL-28): > 100 µM (inactive)
- GI50 (SK-MEL-2): > 100 µM (inactive)
- GI50 (SK-MEL-5): > 100 µM (inactive)
- GI50 (SN12C): > 100 µM (inactive)
- GI50 (SNB-19): > 100 µM (inactive)
- GI50 (SNB-75): > 100 µM (inactive)
- GI50 (SNB-78): > 100 µM (inactive)
- GI50 (SR): > 100 µM (inactive)
- GI50 (SW-620): > 100 µM (inactive)
- GI50 (TK-10): > 100 µM (inactive)
- GI50 (U-251): > 100 µM (inactive)
- GI50 (UACC-257): > 100 µM (inactive)
- GI50 (UACC-62): > 100 µM (inactive)
- GI50 (UO-31): > 100 µM (inactive)
- GI50 (XF498): > 100 µM (inactive)
